# Tests used:
# SKH-1 mice [1] = tested on: SKH-1 mice
# Description: (§1) Ten female SKH-1 mice were obtained from Jackson Laboratory. They were 9 weeks old at the start of the experiment.
# (§2) Animals were ordered at 7 weeks of age and half were pretreated with quetiapine (10 mg/kg dissolved in drinking water) for two weeks prior to commencement of UV exposure. The other half were left untreated. Quetiapine was obtained in powder form (batch 1677) from Avlon Works, in Bristol, England, a production site for the pharmaceutical company AstraZeneca. All mice were exposed three times a week for a total of 10 weeks. Exposure intensity was 90 mJ/cm and exposure duration was 7.5 minutes. […] Excessive damage to the skin was not the goal of this study. The lamp used was manufactured by UVP (Upland, Calif., model UVLM-28).
# (§3) Animals were free moving in a standard cage, with the light positioned about 30 cm above them. The intensity was measured and animals were not placed under the light until it had reached a stable value.
# Skin samples were taken from the dorsal region (along the midline of the mouse close to the hindlimbs) of each mouse using a 6 mm dermal biopsy punch.
# Three histological stains were used. Each stain was prepared by the histology technician in the Department of Human Anatomy and Cell Science at the University of Manitoba. Hematoxylin and Eosin (H&E) was used to examine skin structure. Van Gieson stain was used to examine collagen structure, and Verhoeff-Van Gieson stain was used to examine both collagen and elastin fibres.
# Skin samples from all animals were embedded in paraffin wax blocks using standard techniques and sectioned at a thickness of 5 microns.
# Staining with Hematoxylin and Eosin.
# Staining with Van Gieson.
# Staining with Verhoeff-Van Gieson.
# fibroblasts [2] = tested on: fibroblasts
# Description: Cultures were examined after 24, 48, and 72 hours after treatment with 0, 0.01, 0.1, 10, or 100 μM of Quetiapine.
# proCOL1A1 = details: 0.1 μM; UVB 20 mJ/cm^2; compared to UVB control cells
# Description: (§4) Fibroblasts were exposed to varying intensities of UVB, 0, 20, 40 and 60 mJ/cm^2 and were examined 24, 48 or 72 hours after. […] MMP-1 or matrix metalloproteinase-1 is an enzyme that is involved in the breakdown of the extracellular matrix in normal physiological processes such as embryonic development, reproduction and tissue modeling. It is also responsible for breaking down collagen. proCOL1A1 is one component that makes up a molecule of type 1 collagen, which is found in most connective tissue, including the skin.
# fibroblasts [3] = tested on: fibroblasts; remark: listed apart in the source
# Description: as §4
# fibroblasts [4] = details: UVB and Quetiapine for 48 hours
# SKH-1 mice [5] = details: 10 mg/kg in drinking water; after 2 weeks of UV treatment; vs untreated mice
# Description: as §1, §2, §3
# Fibroblast cells = details: fibroblasts, doses 0, 0.01, 0.1 and 1 μM
# Description: Fibroblast cells were plated at different densities, and exposed to UVC for various time (0 s, 10 s, 60 s and 360 s), then incubated for another 24 h, 48 h or 72 h (PIT). MTT assay was used to evaluate cell viability.
# [6] = 10 mg/kg in drinking water, UV three times a week for 10 weeks
compound,measurement,setting,value
"OCCOCCN1CCN(C2=Nc3ccccc3Sc3ccccc32)CC1 [Quetiapine, 2-(2-(4-dibenzo[b,f][1,4]thiazepine-11-yl-1-piperazinyl)ethoxy)ethanol]",collagen appearance (Van Gieson),SKH-1 mice [1]; [6],"darker staining and uniform, intact appearance of collagen bands"
same,elastic fibre number and structure (Verhoeff-Van Gieson),SKH-1 mice [1]; [6],better preservation of elastic fibre number and structure
same,epidermis thickness (Hematoxylin and Eosin),SKH-1 mice [1]; [6],increased thickness in the untreated group compared to control and quetiapine treated animals
same,UV induced collagen breakdown and formation of abnormal elastic fibres (summary),SKH-1 mice [1]; chronically UV exposed mice,appears to prevent UV induced collagen breakdown and the formation of abnormal elastic fibres
same,cytotoxic effect on fibroblasts,"fibroblasts [2]; fibroblast cultures examined 24, 48 and 72 hours after treatment",cytotoxic effect on fibroblasts at high concentrations
same,"survival at 1, 10, and 100 μM","fibroblasts [2]; fibroblasts, 1, 10 and 100 μM",decreased further
same,concentration at which survival started becoming affected,"fibroblasts [2]; fibroblasts, 24, 48, 72 hours, 0-100 μM",100 nM
same,proCOL1A1 content in cell lysates,proCOL1A1,significantly increase
same,alleviation of UVB induced cell viability (MTT assay),fibroblasts [3],not to alleviate UVB induced cell viability
same,effect on cell death (PI-Hoechst 33342 staining),fibroblasts [4],no effect on cell death
same,skin irritation,SKH-1 mice [5],less irritation
same,skin redness,SKH-1 mice [5],less redness
same,prevention of UVC induced cytotoxicity,Fibroblast cells,did not prevent UVC induced cytotoxicity regardless of the dose given

# From patent publication US20140161748A1, “METHODS FOR TREATING SUN-EXPOSED SKIN” (UNIVERSITY OF MANITOBA, priority 2011, published 2014)
